Data published in PubChem BioAssay (NCI).
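Assay format: 96-well plates, 48-hour exposure. Here, GI50 denotes the concentration required for 50% inhibition of growth. The concentration for full growth arrest is given as TGI.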

Assays:
Assay in all cases: NCI anticancer screen, dose series, 48 h
EKVX NSCLC = system: EKVX NSCLC
IGROV1 ovarian = system: IGROV1 ovarian
HL-60(TB) leukemia = system: HL-60(TB) leukemia
RXF 393 renal = system: RXF 393 renal
UO-31 renal = system: UO-31 renal
HOP-62 NSCLC = system: HOP-62 NSCLC
HT29 colon = system: HT29 colon
HOP-92 NSCLC = system: HOP-92 NSCLC
RPMI-8226 leukemia = system: RPMI-8226 leukemia
MDA-MB-435 = system: MDA-MB-435

## CCOC(=O)/C(O)=C(/c1n[nH]c(=O)c2ccccc12)[N+](=O)[O-]
EKVX NSCLC
  TGI: > 100 µM
IGROV1 ovarian
  TGI: > 100 µM
HL-60(TB) leukemia
  TGI: > 100 µM
RXF 393 renal
  TGI: > 100 µM
UO-31 renal
  TGI: > 100 µM
HOP-62 NSCLC
  TGI: > 100 µM
HT29 colon
  TGI: > 100 µM
HOP-92 NSCLC
  TGI: > 100 µM
RPMI-8226 leukemia
  TGI: > 100 µM

## CCOC(=O)C12CCCC1(O)N(NC(=O)c1ccccc1)C(C)=C2C(=O)OC (centres undefined)
EKVX NSCLC
  TGI: > 100 µM
IGROV1 ovarian
  TGI: > 100 µM
HL-60(TB) leukemia
  TGI: > 100 µM
UO-31 renal
  TGI: > 100 µM
HOP-62 NSCLC
  TGI: > 100 µM
HT29 colon
  TGI: > 100 µM
HOP-92 NSCLC
  TGI: > 100 µM
RPMI-8226 leukemia
  TGI: > 100 µM

## CC(=O)[CH-]C(=O)c1ccccc1.CC(=O)[CH-]C(=O)c1ccccc1.CC[O-].CC[O-].[Zr+4]
EKVX NSCLC
  GI50: 91.6 µM
  TGI: > 100 µM
IGROV1 ovarian
  GI50: > 100 µM
  TGI: > 100 µM
HL-60(TB) leukemia
  GI50: > 100 µM
  TGI: > 100 µM
RXF 393 renal
  GI50: > 100 µM
  TGI: > 100 µM
UO-31 renal
  GI50: > 100 µM
  TGI: > 100 µM
HOP-62 NSCLC
  GI50: > 100 µM
  TGI: > 100 µM
HT29 colon
  GI50: > 100 µM
  TGI: > 100 µM
RPMI-8226 leukemia
  GI50: > 100 µM
  TGI: > 100 µM

## COc1ccc(C(=O)C(c2ccc(OC)cc2)C2(O)C(=O)Nc3ccccc32)cc1 (centres undefined)
EKVX NSCLC
  TGI: > 100 µM
IGROV1 ovarian
  TGI: > 100 µM
HL-60(TB) leukemia
  TGI: > 100 µM
UO-31 renal
  TGI: > 100 µM
HT29 colon
  TGI: > 100 µM
HOP-92 NSCLC
  TGI: > 100 µM
RPMI-8226 leukemia
  TGI: > 100 µM

## CC(=O)OC(/C=C1/C=CC(=O)O1)COC(=O)c1ccccc1 (centres undefined)
EKVX NSCLC
  TGI: > 31.2 µM
IGROV1 ovarian
  TGI: > 31.2 µM
HL-60(TB) leukemia
  TGI: > 31.2 µM
RXF 393 renal
  TGI: > 31.2 µM
UO-31 renal
  TGI: > 31.2 µM
HOP-62 NSCLC
  TGI: > 31.2 µM
HT29 colon
  TGI: > 31.2 µM
HOP-92 NSCLC
  TGI: > 31.2 µM
RPMI-8226 leukemia
  TGI: > 31.2 µM

## [O-]c1c2c(nn1-c1ccccc1)c1ccccc1c[n+]2Cc1ccccc1
EKVX NSCLC
  TGI: > 100 µM
IGROV1 ovarian
  TGI: > 100 µM
HL-60(TB) leukemia
  TGI: > 100 µM
RXF 393 renal
  TGI: 7.33 µM
UO-31 renal
  TGI: > 100 µM
HOP-62 NSCLC
  TGI: > 100 µM
HT29 colon
  TGI: > 100 µM
HOP-92 NSCLC
  TGI: > 100 µM
RPMI-8226 leukemia
  TGI: > 100 µM

## COc1cc(/C=C2/C(=O)N(C(=O)OC(C)C)C(Cc3cc(OC)c(OC)c(C)c3OC)C(=O)N2Cc2ccccc2)c(OC)c(C)c1OC (centres undefined)
EKVX NSCLC
  TGI: > 100 µM
IGROV1 ovarian
  TGI: > 100 µM
HL-60(TB) leukemia
  TGI: > 100 µM
RXF 393 renal
  TGI: > 100 µM
UO-31 renal
  TGI: > 100 µM
HOP-62 NSCLC
  TGI: > 100 µM
HT29 colon
  TGI: > 100 µM
HOP-92 NSCLC
  TGI: > 100 µM
RPMI-8226 leukemia
  TGI: > 100 µM

## COc1ccccc1OCC(=O)Nc1sc2c(c1C(N)=O)CCC2
EKVX NSCLC
  GI50: > 100 µM
  TGI: > 100 µM
MDA-MB-435
  GI50: > 100 µM
  TGI: > 100 µM
IGROV1 ovarian
  GI50: > 100 µM
  TGI: > 100 µM
HL-60(TB) leukemia
  GI50: > 100 µM
  TGI: > 100 µM
UO-31 renal
  GI50: > 100 µM
  TGI: > 100 µM
HOP-62 NSCLC
  GI50: > 100 µM
  TGI: > 100 µM
HT29 colon
  GI50: > 100 µM
  TGI: > 100 µM
HOP-92 NSCLC
  GI50: > 100 µM
  TGI: > 100 µM
RPMI-8226 leukemia
  GI50: > 100 µM
  TGI: > 100 µM

## O=C(O)/C=C/n1c2ccccc2c(=O)c2ccccc21
EKVX NSCLC
  TGI: > 100 µM
IGROV1 ovarian
  TGI: > 100 µM
HL-60(TB) leukemia
  TGI: > 100 µM
RXF 393 renal
  TGI: > 100 µM
UO-31 renal
  TGI: > 100 µM
HOP-62 NSCLC
  TGI: > 100 µM
HT29 colon
  TGI: > 100 µM
RPMI-8226 leukemia
  TGI: > 100 µM

## CCC[CH2][Sn]1([CH2]CCC)[O]C(=O)c2cc(I)cc(I)c2[O]1
EKVX NSCLC
  GI50: 1.35 µM
  TGI: 3.4 µM
IGROV1 ovarian
  GI50: 1.81 µM
  TGI: 3.36 µM
HL-60(TB) leukemia
  GI50: 0.4 µM
  TGI: 2.22 µM
RXF 393 renal
  GI50: 0.559 µM
  TGI: 1.97 µM
UO-31 renal
  GI50: 1.49 µM
  TGI: 2.82 µM
HOP-62 NSCLC
  GI50: 2.13 µM
  TGI: 4.12 µM
HT29 colon
  GI50: 2.03 µM
  TGI: 4.21 µM
HOP-92 NSCLC
  GI50: 1.4 µM
  TGI: 2.93 µM
RPMI-8226 leukemia
  GI50: 0.238 µM
  TGI: 1.16 µM

## COc1cc2nc3sc(C(=O)Nc4ccc(C(=O)OC(C)C)cc4)c(C(=O)Nc4ccc(Cl)cc4C)n3c(=O)c2cc1OC
EKVX NSCLC
  GI50: 22.8 µM
  TGI: > 100 µM
MDA-MB-435
  GI50: 9.11 µM
  TGI: > 100 µM
IGROV1 ovarian
  GI50: 0.69 µM
  TGI: 17.8 µM
HL-60(TB) leukemia
  GI50: 7.59 µM
  TGI: 35.2 µM
UO-31 renal
  GI50: 25.7 µM
  TGI: > 100 µM
HOP-62 NSCLC
  GI50: 18.7 µM
  TGI: 52.2 µM
HT29 colon
  GI50: 3.18 µM
  TGI: > 100 µM
HOP-92 NSCLC
  GI50: 10.7 µM
  TGI: 30.6 µM
RPMI-8226 leukemia
  GI50: 16 µM
  TGI: 78.6 µM

## C[n+]1c(/C=C\c2ccc(Cl)cc2)ccc2ccccc21
EKVX NSCLC
  GI50: 2.45 µM
  TGI: > 100 µM
MDA-MB-435
  GI50: 21.5 µM
  TGI: 66.4 µM
IGROV1 ovarian
  GI50: 27.2 µM
  TGI: > 100 µM
HL-60(TB) leukemia
  GI50: 24.2 µM
  TGI: > 100 µM
RXF 393 renal
  GI50: 31.8 µM
  TGI: 98.3 µM
UO-31 renal
  GI50: 72.5 µM
  TGI: > 100 µM
HOP-62 NSCLC
  GI50: 29.2 µM
  TGI: > 100 µM
HT29 colon
  GI50: 19.4 µM
  TGI: > 100 µM
RPMI-8226 leukemia
  GI50: 14.4 µM
  TGI: > 100 µM

## O=S(=O)(/C=C/c1ccc(Cl)cc1Cl)Cc1ccccc1CS(=O)(=O)/C=C/c1ccc(Cl)cc1Cl
EKVX NSCLC
  TGI: > 100 µM
IGROV1 ovarian
  TGI: > 100 µM
RXF 393 renal
  TGI: > 100 µM
UO-31 renal
  TGI: > 100 µM
HOP-62 NSCLC
  TGI: > 100 µM
HT29 colon
  TGI: > 100 µM
HOP-92 NSCLC
  TGI: > 100 µM
RPMI-8226 leukemia
  TGI: > 100 µM

## CCOC12OC3=C(CC1CC1=C(CCC1=O)O2)C(=O)CC3 (centres undefined)
EKVX NSCLC
  TGI: > 100 µM
IGROV1 ovarian
  TGI: > 100 µM
HL-60(TB) leukemia
  TGI: > 100 µM
RXF 393 renal
  TGI: > 100 µM
UO-31 renal
  TGI: > 100 µM
HOP-62 NSCLC
  TGI: > 100 µM
HT29 colon
  TGI: > 100 µM
HOP-92 NSCLC
  TGI: > 100 µM
RPMI-8226 leukemia
  TGI: > 100 µM

## C=CCCC(OCOCCOC)c1cc(C)c(O[Si](C)(C)C(C)(C)C)c(C)c1 (centres undefined)
EKVX NSCLC
  TGI: 63.5 µM
IGROV1 ovarian
  TGI: 90.5 µM
HL-60(TB) leukemia
  TGI: 19.5 µM
RXF 393 renal
  TGI: 27.4 µM
UO-31 renal
  TGI: 23.9 µM
HOP-62 NSCLC
  TGI: 35.2 µM
RPMI-8226 leukemia
  TGI: 23.4 µM

## Cc1[nH]c2ccccc2c1C1Cc2ccccc2N1C(=O)/C=C/C=C/c1ccccc1 (centres undefined)
EKVX NSCLC
  TGI: > 100 µM
IGROV1 ovarian
  TGI: > 100 µM
HL-60(TB) leukemia
  TGI: > 100 µM
RXF 393 renal
  TGI: > 100 µM
UO-31 renal
  TGI: > 100 µM
HOP-62 NSCLC
  TGI: > 100 µM
HT29 colon
  TGI: > 100 µM
HOP-92 NSCLC
  TGI: > 100 µM
RPMI-8226 leukemia
  TGI: > 100 µM

## COc1ccc2nc(-c3cc(-c4cc(OC)c(OC)c(OC)c4)n[nH]3)[nH]c2c1
MDA-MB-435
  GI50: 1.49 µM
  TGI: 3.11 µM
IGROV1 ovarian
  GI50: 1.9 µM
  TGI: 7.11 µM
HL-60(TB) leukemia
  GI50: 1.69 µM
  TGI: 4.81 µM
RXF 393 renal
  GI50: 2.49 µM
  TGI: 12.3 µM
UO-31 renal
  GI50: 1.57 µM
  TGI: 4.11 µM
HOP-62 NSCLC
  GI50: 2.02 µM
  TGI: 5.77 µM
HT29 colon
  GI50: 2.76 µM
  TGI: 16.2 µM
RPMI-8226 leukemia
  GI50: 0.643 µM
  TGI: 2.53 µM

## Cc1cc(O)cc2oc(=O)c3c(O)cc(O)cc3c12
EKVX NSCLC
  TGI: 75.1 µM
IGROV1 ovarian
  TGI: 74.7 µM
HL-60(TB) leukemia
  TGI: 46.5 µM
RXF 393 renal
  TGI: 54.5 µM
UO-31 renal
  TGI: > 100 µM
HOP-62 NSCLC
  TGI: 50.9 µM
HT29 colon
  TGI: > 100 µM
HOP-92 NSCLC
  TGI: 76.3 µM
